Data on 17 compounds can be found in patent US4673684A, “Amide derivatives and 5-lipoxygenase inhibitors containing the same as an active ingredient” (Terumo Corporation, priority 1984, dated 1987).

SMILES strings stand for the structures.

The target in one assay is T1, 5-lipoxygenase (Mus musculus, UniProt P48999).
T1 construct: The supernatant is used as a 5-lipogenase enzyme solution; endogenous in cells
T1 sequence (P48999 1-674): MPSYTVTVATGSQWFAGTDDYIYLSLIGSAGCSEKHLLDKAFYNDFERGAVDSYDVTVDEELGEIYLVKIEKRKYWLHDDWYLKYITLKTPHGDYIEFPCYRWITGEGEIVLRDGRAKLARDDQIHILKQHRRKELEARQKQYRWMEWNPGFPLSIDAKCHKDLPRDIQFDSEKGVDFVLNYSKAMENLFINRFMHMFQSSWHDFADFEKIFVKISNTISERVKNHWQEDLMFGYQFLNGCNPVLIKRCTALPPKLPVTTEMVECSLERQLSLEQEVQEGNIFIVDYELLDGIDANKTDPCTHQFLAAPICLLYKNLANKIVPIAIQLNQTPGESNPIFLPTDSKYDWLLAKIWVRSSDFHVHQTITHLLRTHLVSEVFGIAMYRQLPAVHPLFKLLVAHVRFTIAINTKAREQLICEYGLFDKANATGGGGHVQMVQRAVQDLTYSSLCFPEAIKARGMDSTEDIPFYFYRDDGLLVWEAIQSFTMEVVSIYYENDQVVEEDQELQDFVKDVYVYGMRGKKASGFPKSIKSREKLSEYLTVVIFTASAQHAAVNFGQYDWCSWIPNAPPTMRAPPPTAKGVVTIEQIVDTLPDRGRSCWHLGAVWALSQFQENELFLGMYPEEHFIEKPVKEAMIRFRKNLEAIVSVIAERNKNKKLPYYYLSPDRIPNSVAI
Nature of the assay: 5-Lipoxygenase-inhibiting Activity (decrease in 5-HETE and LTB4 formed from radiolabelled arachidonic acid, enzyme solution from mouse mastcytoma cells P-815). Type of assay: biochemical.
Conditions: not given
Put shortly: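 Enzyme is sonicated 10,000 rpm supernatant of P-815 mouse mastocytoma cells, reacted 5 min at 37 °C with radiolabelled arachidonic acid, indomethacin and CaCl2 in pH 7.4 phosphate buffer. 5-HETE and LTB4 separated by TLC and counted by scintillation; IC50 or IC30 is concentration reducing product to 50% or 30% of control.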
`COc1ccc(/C=C/C(=O)N2CCN(CCOC(c3ccccc3)c3ccccc3)CC2)cc1OC` [Example 76, N-[3-(3,4-dimethoxyphenyl) -2-propenoyl]-N'-(2-benzhydroxyethyl)piperazine] came in with an IC50 of 20000 nM.
`O=C(/C=C/C=C/c1ccc(O)c(O)c1)N1CCN(CCOC(c2ccccc2)c2ccccc2)CC1` [Example 84, N-[5-(3,4-dihydroxyphenyl)-2,4-pentadienoyl]--N'-(2-benzhydroxyethyl)piperazine] came in with an IC50 of 30 nM.

The assay is the same for the next values; noted with them: 5-HETE and LTB4 formation; mouse mastcytoma P-815 enzyme solution; 37° C., 5 min; pH 7.4; with indomethacin; read-out: 50% Inhibitory concentration IC50.
Regarding `COc1cc(/C=C/C(=O)N2CCN(CCCOC(c3ccccc3)c3ccccc3)CC2)ccc1O` [Example 71, N-[3-(3-methoxy-4-hydroxy)phenyl-2-propenoyl]-(3-benzhydroxypropyl)piperazine], the IC50 turned out to be 600 nM.
In the case of `O=C(/C=C/C=C/c1ccc(O)c(O)c1)NCCN1CCN(C(c2ccccc2)c2ccccc2)CC1` [Example 27, N-benzhydryl-N'-[2-{5-(3,4-dihydroxyphenyl)-2,4-pentadienoyl}aminoethyl]piperazine], the IC50 turned out to be 7 nM.
Same read-out and setting: next, `COc1cc(/C=C/C=C/C(=O)NCCCCN2CCN(C(c3ccccc3)c3ccc(Cl)cc3)CC2)cc(OC)c1O` (centres unmarked) [Example 96, N-p-chlorobenzhydryl-N'-5-(3,5-dimethoxy-4-hydroxy)phenyl-2,4-pentadienlylaminobutylpiperazine]: 20 nM; `CC(OCCN1CCN(C(=O)/C=C/C=C/c2ccc(O)c(O)c2)CC1)(c1ccccc1)c1ccc(Cl)cc1` (centres unmarked) [Example 107, N-[5-(3,4-dihydroxyphenyl)-2,4-pentadienoyl]-N-[2-[1-phenyl-1-(p-chlorophenyl)-ethoxy]ethyl]piperazine]: 10 nM.
As for `COc1cc(/C=C/C(=O)NCCOC(c2ccccc2)c2ccccc2)ccc1O` [Example 72, 2-[3-(3-methoxy-4-hydroxy)phenyl-2-propenoyl]aminoethyl benzhydryl ether], the IC50 was determined as 900 nM.
Turning to `CC/C=C\C/C=C\C/C=C\CCCCCCCC(=O)NCCCCNC(=O)/C=C/C=C/c1ccc(O)c(OC)c1` [Example 19, N-{5-(3-methoxy-4-hydroxyphenyl)-2,4-pentadienoyl}-N'-9,12,15-octadecatrienoyl-1,4-diaminobutane], the IC50 came out at 200 nM.
Same read-out and setting: the value for `COc1cc(/C=C/C(=O)NCc2c(CO)cnc(C)c2O)cc(OC)c1O` [Example 50, 4-[3-(3,5-dimethoxy-4-hydroxyphenyl)-2-propenoyl]aminomethyl-3-hydroxy-5-hydroxymethyl-2-methylpyridine] was 6000 nM; that for `COc1cc(/C=C/C(=O)N2CCN(CCCCn3cnc4c3c(=O)n(C)c(=O)n4C)CC2)cc(OC)c1O` [Example 125, 7-[4-[4-{3-(3,5-dimethoxy-4-hydroxyphenyl)-2-propenoyl}piperazi-1-nyl]butyl]theophylline] was 7000 nM.
On the same count and under the same terms, the value for `COc1cc(/C=C/C(=O)NCCN2CCN(C(c3ccccc3)c3ccc(Cl)cc3)CC2)cc(OC)c1O` (centres unmarked) [Example 49] was 40 nM; that for `COc1cc(/C=C/C(=O)Nc2ccccc2C(=O)O)cc(OC)c1O` [Example 51, N-[3-(3,5-dimethox-4-hydroxyphenyl)propenoyl]anthranilic acid] was 1000 nM.
Take `Cn1c(=O)c2c(ncn2CCNC(=O)/C=C/c2ccc(O)c(O)c2)n(C)c1=O` [Example 65, 7-[2-[3-(3,4-dihydroxy)phenyl-2-propenoyl]aminoethyl]theophilline]: the IC50 was determined as 2000 nM.
As to `COc1cc(/C=C/C=C/C(=O)NCCN2CCN(C)CC2)ccc1O` [Example 40], the IC50 came to 10000 nM.
For the compound `COc1cc(/C=C/C(=O)NCCCCNC(=O)c2ccccc2N)ccc1O` [Example 35, N-3-[3-methoxy-4-hydroxy]pyenyl-2-butenoyl-N'-(2-amino)benzoylptolesine], the IC50 worked out at 20000 nM.
For the compound `O=C(/C=C/C=C/c1ccc(O)c(O)c1)NCCCCN1CCN(C(c2ccccc2)c2ccccc2)CC1` [Example 83, N-benzhydryl-N'-5-(3,4-dihydroxyphenyl)-2,4-pentadienoylaminobutylpiperazine], the IC50 is 40 nM.
As for `COc1cc(/C=C/C(=O)NCCN2CCN(C(c3ccccc3)c3ccc(Cl)cc3)CC2)ccc1O` (centres unmarked) [Example 1, N-(p-chlorobenzhydryl)-N'-[2-{3-(3-methoxy-4-hydroxyphenyl)-2-propenoyl}-aminoethyl]piperazine], the IC50 turned out to be 500 nM.
